IC50 and inhibition data for 16 compounds are collected here from US11220505B2, “5-hydroxytryptamine receptor 7 modulators and their use as therapeutic agents” (Temple University-Of the Commonwealth System of Higher …, priority 2017, dated 2022).

The structures appear in SMILES notation. pIC50: −log10 of the molar value.

The test deals with Serotonin 5-HT7 Receptors (Homo sapiens (Human), UniProt P34969). Nature of the test: Radiolabel Binding Studies for Serotonin 5-HT7 Receptors, Method 2 ([3H]-5HT competition; Ki and percent inhibition at 10 μM). As to conditions: for pIC50: radiolabel binding, 5HT7 receptors; for inhibition at 10 µM: @ 10 μM single concentration, read-out: 5-HT7 percent inhibition of radioligand binding. The protocol:
Radiolabel Binding Studies for Serotonin 5-HT7 Receptors, Method 2:
A solution of the compound of the disclosure to be tested is prepared as a 1-mg/ml stock in Assay Buffer or DMSO according to its solubility. A similar stock of the reference compound chlorpromazine is also prepared as a positive control. Eleven dilutions (5×assay concentration) of the compound of the disclosure and chlorpromazine are prepared in the Assay Buffer by serial dilution to yield final corresponding assay concentrations ranging from 10 pM to 10 μM.
A stock concentration of 5 nM [^3H]-5-Hydroxytryptamine ([^3H]-5HT) is prepared in 50 mM Tris-HCl, 10 mM MgCl2, 1 mM EDTA, pH 7.4 (Assay Buffer). Aliquots (50 μl) of radioligand are dispensed into the wells of a 96-well plate containing […] of Assay Buffer. Duplicate 50-μl aliquots of the compound of the disclosure test and chlorpromazine positive control reference compound serial dilutions are added.
Membrane fractions of cells expressing recombinant 5HT7 receptors (50 μL) are dispensed into each well. The membranes are prepared from stably transfected cell lines expressing 5HT7 receptors cultured on 10-cm plates by harvesting PBS-rinsed monolayers, resuspending and lysing in chilled, hypotonic 50 mM Tris-HCl, pH 7.4, centrifuging at 20,000×g, decanting the supernatant and storing at −80° C.; the membrane preparations are resuspended in 3 ml of chilled Assay Buffer and homogenized by several passages through a 26 gauge needle before using in the assay.
The 250-μl reactions are incubated at room temperature for 1.5 hours, then harvested by rapid filtration onto 0.3% polyethyleneimine-treated, 96-well filter mats using a 96-well Filtermate harvester. Four rapid 500-μl washes are performed with chilled Assay Buffer to reduce non-specific binding. The filter mats are dried, then scintillant is added to the filters and the radioactivity retained on the filters is counted in a Microbeta scintillation counter.
Raw data (dpm) representing total radioligand binding (i.e., specific+non-specific binding) are plotted as a function of the logarithm of the molar concentration of the competitor (i.e., test or reference compound). Non-linear regression of the normalized (i.e., percent radioligand binding compared to that observed in the absence of test or reference compound) raw data is performed in Prism 4.0 (GraphPad Software) using the built-in three parameter logistic model describing ligand competition binding to radioligand-labeled sites: y=bottom+[(top−bottom)/(1+10x−log IC50)] where bottom equals the residual radioligand binding measured in the presence of 10 μM reference compound (i.e., non-specific binding) and top equals the total radioligand binding observed in the absence of competitor. The log IC50 (i.e., the log of the ligand concentration that reduces radioligand binding by 50%) is thus estimated from the data and used to obtain the Ki by applying the Cheng-Prusoff approximation: Ki=IC50/(1+[ligand]/KD) where [ligand] equals the assay radioligand concentration and KD equals the affinity constant of the radioligand for the target receptor.
Compounds of the disclosure are also screened at a single concentration of 10 μM using the same method described for the Radiolabel Binding Studies for Serotonin 5HT7 receptors to determine the percent inhibition of [^3H]-5HT binding.

Chain of Serotonin 5-HT7 Receptors (P34969 whole entry): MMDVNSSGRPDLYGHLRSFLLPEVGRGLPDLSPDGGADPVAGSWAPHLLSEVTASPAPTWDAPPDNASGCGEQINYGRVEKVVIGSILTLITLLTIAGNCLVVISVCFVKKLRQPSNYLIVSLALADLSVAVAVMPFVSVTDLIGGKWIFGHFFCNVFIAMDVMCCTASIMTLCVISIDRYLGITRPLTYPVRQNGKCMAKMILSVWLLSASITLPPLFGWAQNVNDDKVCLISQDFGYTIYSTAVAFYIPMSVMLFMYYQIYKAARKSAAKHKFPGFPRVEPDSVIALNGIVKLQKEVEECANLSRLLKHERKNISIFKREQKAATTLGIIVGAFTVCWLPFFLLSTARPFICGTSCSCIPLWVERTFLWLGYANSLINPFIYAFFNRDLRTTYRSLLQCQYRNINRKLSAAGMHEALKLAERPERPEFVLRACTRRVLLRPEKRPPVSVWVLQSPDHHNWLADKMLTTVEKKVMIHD

In general, pIC50 refers to the IC50 on a negative log10 scale, so that one unit is a factor of ten. Higher therefore signals a low IC50. `CCC1(CC)CC(CCN2CC3CN(c4ccccc4C(C)C)CC3C2)OC1=O` (stereo not shown) [Entry 2] showed a pIC50 of 6.56.

With `CCC1(CC)CC(CCN2CC3CN(c4ccccc4O)CC3C2)OC1=O` (stereo not shown) [Entry 13], the pIC50 is 6.64.

Compound `CCC1(CC)CC(CCN2CC3CN(c4ccccc4OC)CC3C2)OC1=O` (stereo not shown) [Entry 10] gave a pIC50 of 6.82.

Consider `CCC1(CC)CC(CCN2CC3CN(c4ccccc4N4CCOCC4)CC3C2)OC1=O` (stereo not shown) [Entry 16], for which the pIC50 is 6.80. The pIC50 values of the last two compounds are within 0.2 log units of each other.

Usually inhibition stands for the share of the control response that was lost under treatment. As for `CCC1(CC)CC(CCN2CC3CN(c4ccc(C#N)cc4)CC3C2)OC1=O` (stereo not shown) [Entry 9], the inhibition at 10 µM was 26.3%.

Take `CCC1(CC)CC(CCN2CC3CN(c4ccc(OC)cc4)CC3C2)OC1=O` (stereo not shown) [Entry 12]: the inhibition at 10 µM was 24.5%.

The compound `CCC1(CC)CC(CCN2CC3CN(c4ccccc4C)CC3C2)OC1=O` (stereo not shown) [Entry 4] showed a pIC50 of 6.75.

The compound `CCC1(CC)CC(CCN2CC3CN(c4cccc(OC)c4)CC3C2)OC1=O` (stereo not shown) [Entry 11] showed a pIC50 of 6.04.

For `CCC1(CC)CC(CCN2CC3CN(c4ccc(C)cc4)CC3C2)OC1=O` (stereo not shown) [Entry 6], the inhibition at 10 µM was 44.5%.

With `CCC1(CC)CC(CCN2CC3CN(c4ccc(O)cc4)CC3C2)OC1=O` (stereo not shown) [Entry 15], the pIC50 is 6.89.

Compound `CC(C)c1ccccc1N1CC2CN(CCC3CC4(CCCCC4)C(=O)O3)CC2C1` (stereo not shown) [Entry 3] gave a pIC50 of 6.57.

Turning to `CCC1(CC)CC(CCN2CC3CN(c4cccc(C#N)c4)CC3C2)OC1=O` (stereo not shown) [Entry 8], the inhibition at 10 µM was found to be 48.9%.

For the compound `CCC1(CC)CC(CCN2CC3CN(c4ccccc4C#N)CC3C2)OC1=O` (stereo not shown) [Entry 7], the pIC50 is 8.05.

`CCC1(CC)CC(CCN2CC3CN(c4cccc(O)c4)CC3C2)OC1=O` (stereo not shown) [Entry 14]: the inhibition at 10 µM turned out to be 39.8%.

Compound `CCC1(CC)CC(CCN2CC3CN(c4ccccc4)CC3C2)OC1=O` (stereo not shown) [Entry 1] had a pIC50 of 7.19.

With `CCC1(CC)CC(CCN2CC3CN(c4cccc(C)c4)CC3C2)OC1=O` (stereo not shown) [Entry 5], the pIC50 is 6.98. Compared with the last compound, the pIC50 is 0.21 log units lower.
